The target of this assay is T1, Cyr61 (Homo sapiens, UniProt O00622).
T1 construct: gene CCN1; Cyr61 protein (Mammalian, C-Fc)
T1 sequence (O00622 25-381): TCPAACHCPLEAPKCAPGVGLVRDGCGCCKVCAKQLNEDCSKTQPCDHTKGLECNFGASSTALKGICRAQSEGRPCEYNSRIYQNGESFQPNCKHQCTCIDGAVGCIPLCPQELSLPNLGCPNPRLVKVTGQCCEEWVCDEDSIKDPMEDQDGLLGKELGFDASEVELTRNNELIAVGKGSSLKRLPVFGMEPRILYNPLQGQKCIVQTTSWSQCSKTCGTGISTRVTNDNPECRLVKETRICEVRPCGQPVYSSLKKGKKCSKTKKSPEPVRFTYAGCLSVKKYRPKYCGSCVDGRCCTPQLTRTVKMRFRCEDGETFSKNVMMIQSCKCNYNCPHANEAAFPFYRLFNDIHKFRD
The assay can be described thus: Microscale thermophoresis with RED-NHS labelled recombinant Cyr61; supported by DARTS and CETSA in HeLa cells. It is filed as binding. (In general: Microscale thermophoresis detects binding through changes in fluorescence in a small temperature gradient.)

This is an account of results in paper PMC8218918, “The Cyr61 Is a Potential Target for Rotundifuran, a Natural Labdane-Type Diterpene from Vitex trifolia L., to Trigger Apoptosis of Cervical Cancer Cells” (Oxidative Medicine and Cellular Longevity, 2021).

By Kd is commonly meant a measure of binding affinity in units of concentration.

Take `CC(=O)O[C@@H]1C[C@@H](C)[C@](O)(CCc2ccoc2)[C@@]2(C)CCCC(C)(C)[C@H]12` [RTF, Rotundifuran]: the Kd came out at 3.8 ± 4.5 µM.
